Data set [1] is described as follows: Dissipation of pH gradient in membranes of pyranine-loaded liposomes. To be noted: for dissipation of pH gradient (intraliposomal pH change), protonophore activity: in the presence of valinomycin (10 nM), C12R19 and C12RB at 0.15 μM, pH 8 buffer. As for the experimental part:
FIG. 2. […] Intraliposomal pH was estimated based on the ratio of the intensities of fluorescence at 455 nm and 505 nm (excitation at 410 nm). 1 μM nigericin was added at 550 s for final pH adjustment. Control curve contained C12R19 but no valinomycin. Concentrations: C12R19 (150 nM), C12RB (150 nM), valinomycin (10 nM), lipid (75 μM). […] Control curve corresponds to addition of 10 nM valinomycin without protonophores. Buffer containing 10 mM MES, 10 mM MOPS, 10 mM TRICINE, and 0.1 M KCl (pH 8) was used.
This method was used in various studies on the protonophore activity and is described in detail in article: Chen Y, Schindler M, Simon S M (1999) J Biol Chem 274:18364-18373. […] Said measurements were performed in the presence of valinomycin, the K^+ ionophore.

The subject of data set [2] is whole yeast (Saccharomyces cerevisiae) cells. In words: Rate of oxygen consumption by whole yeast cells. To be noted: for stimulation of respiration versus suppression of growth: wide range of concentrations, yeast grown on nonfermentable substrate (glycerol). Type of data set: cell-based. As for the experimental part: (§1) FIG. 3. Comparison of properties of C12R19 and C12RB based on relative rate of oxygen consumption by whole yeast (Saccharomyces cerevisiae) cells (A) and yeast growth rate (B). V/V0 corresponds to ratio of oxygen consumption rates after and before addition of uncoupler. Growth rate was defined as the number of CFU (colony-forming units) in cell suspension culture incubated for 2 hours in the presence of indicated concentration of rhodamine derivative.
(§2) FIG. 4. Comparison of stimulation of respiration and suppression of growth: (A) cationic (C12R19), and (B) anionic (FCCP) uncouplers in yeast (Saccharomyces cerevisiae) cells grown on nonfermentable substrate (glycerol). Stimulation of respiration was estimated based on the ratio of oxygen consumption rate in the presence of uncoupler (V) to initial rate (V0). Growth rate was assessed by increase in the number of cells for a given time interval. Growth rate in the absence of uncoupler was taken as 100%.
Simulation of respiration of whole yeast cells reflects uncoupling properties of tested compound.

For data set [3], the system named is yeast Saccharomyces cerevisiae. In words: Yeast growth rate in the presence of uncoupler. Type of data set: cell-based. To be noted: 5 μM; incubated for 2 hours. The procedure: as §1, §2
Under similar conditions experiments determining yeast growth rate in the presence of a given concentration of uncoupler were performed.

The subject of data set [4] is rats with induced rhabdomyolysis. As to the kind of experiment: Rhabdomyolysis-induced acute renal failure in rats. Type of data set: in vivo. To be noted: rat; i.p. 100 nmol/kg per injection, total 400 nmol/kg; 48 h after glycerol; versus rhabdomyolysis without treatment. As for the experimental part:
FIG. 6. Creatinine level in blood of rats with induced rhabdomyolysis. Histogram bar “control” indicates level of creatinine in control group of animals; “rhabdo”—creatinine level in animals with rhabdomyolysis; “rhabdo+C12-R19”—creatinine level in animals with rhabdomyolysis and treatment with C12R19. All data are presented as mean±standard error of measurement.
Induction of rhabdomyolysis was performed according to standard method by injecting rat leg muscles with 50% aqueous glycerol solution (ICN, USA). At the second day after ischemia, blood samples from animals were taken. Creatinine concentration in blood was determined using a CellTac blood analyzer (Nihon Kohben). Experiments on modeling of rhabdomyolysis were performed with at least 8 animals from each group. All data are presented as mean±standard error of measurement.
For the treatment, the following scheme of C12R19 administration was used: intraperitoneal injection of the preparation 1 h after induction of rhabdomyolysis and then three times every 12 hours at a dose of 100 nmol/kg per injection. Thus, an animal received a total dose of 400 nmol/kg of C12R19.

Data set [5] in a line: Diffusion potential on planar bilayer lipid membrane ("black membrane" model). To be noted: for formation of potential upon creation of gradient of the penetrating cation: 1 μM on cis side, same pH on both sides (pH=7); for formation of proton diffusion potential across lipid bilayer: 1 μM, pH_cis=7, pH_trans=8. The procedure:
FIG. 1. A. C12R19, but not C12RB, induces formation of proton diffusion potential across planar lipid bilayer membrane prepared from DPhPC. Concentrations of C12R19 and C12RB are 1 μM. pH_cis=7, pH_trans=8. B. Formation of potential upon creation of gradient of penetrating cations C12RB and C12R19 (1 μM on cis side) at the same pH on both sides (pH=7).
To test penetrating ability of mitochondria-targeted compounds of structure (I), a method based on the ability of ions to penetrate through the bilayer phospholipid membrane moving along concentration gradient was used. The two chambers filled with an aqueous solution are separated by the bilayer membrane, the compound tested is added to one of the chambers. If a charged compound is capable of penetrating through the bilayer membrane, fast diffusion of the compound from the chamber with its high concentration to the chamber with its low concentration occurs, thus difference in the potentials is formed across the membrane. For ions carrying one charge and capable of passive penetrating through the membrane, the 10-fold concentration gradient allows to produce the potential of 60 mV at room temperature and ideal permeability (according to the Nernst equation).
This method was used in various studies on the ability of ions to penetrate through a bilipid membrane and is described in detail in article: Starkov A A, Bloch D A, Chernyak B V, Dedukhova V I, Mansurova S A, Symonyan R A, Vygodina T V, Skulachev V P, 1997, Biochem. Biophys Acta, 1318, 159-172. With this method, C12-R19 (compound of structure (I)) was tested.
It is known that addition of protonophore to such a system should lead to formation of the electric potential due to the flow of protons. […] This can be explained by shunting of potential due to induction of proton conductivity in the presence of C12R19.

Data set [6] has as its system ischemized rats. As to the kind of experiment: Cerebral ischemia in rats (middle cerebral artery blockage): MRT infarct volume and neurological deficit. To be noted: rat, i.p. 100 nmol/kg 24 hours before ischemia, 1 day after surgery. Type of data set: in vivo. The procedure:
FIG. 7. Results of behavioral tests in rats before and at the first day after induction of ischemia. Bar “baseline” indicates final points in animals before surgery; “SO”—points in sham-operated animals; “ischemia+saline”—points in ischemized animals without treatment, with saline solution instead of the preparation; “ischemia+C12R19 0.1 μM” and “ischemia+C12R19 2 μM”—points in ischemized animals with treatment with preparation C12R19 at indicated concentrations. Statistically significant (p<0.01) reduction in severity of neurological deficit in rats treated with C12R19, denoted as
Cerebral ischemia in rats was induced by insertion of nylon thread with silicone coating into the middle cerebral artery. Blockage of the blood flow was maintained for 60 min, after which the thread was removed from the vessel restoring the blood flow in the middle cerebral artery. During and after the surgery the body temperature of the animal was maintained at 37° C. Sham-operated animals were subjected to the same procedures, except for cutting vessels and insertion of thread. The volume of cerebral infarction was determined at the first day to study neuroprotective effects of preparations. […]
1 day after surgery, neurological deficit was determined in rats in the test “Stimulation of legs” and magnetic resonance imaging of the brain was performed. […]

The test system of data set [7] is yeast cells treated with 80 μM amiodarone. In words: Survival of yeast cells treated with amiodarone. Type of data set: cell-based, Saccharomyces cerevisiae. As for the experimental part: FIG. 5. Comparison of resistance of yeast cells to 80 μM amiodarone in the presence of different concentrations of anionic (FCCP) and cationic (C12R19) uncouplers.
To test this, we compared the survival of yeast cells treated with 80 μM amiodarone in the presence of 1-10000 nmol/L FCCP and C12R19.

Data set [8] concerns obese people. To be noted: obese people treated with DNP; cited from earlier work.
Data set [9] deals with yeast cells treated with 80 μM amiodarone. To be noted: earlier publication (Pozniakovsky 2005); cited from earlier work.

Molecules are shown by their SMILES.

As to `CCCCCCCCCCCCOC(=O)c1ccccc1-c1c2cc(C)c(=NCC)cc-2oc2cc(NCC)c(C)cc12` (stereo in doubt) [C12R19, Dodecyl-2-[(3E)-6-(ethylamino)-3-(ethylimino)-2,7-dimethyl-3H-xanthen-9-yl]benzoate bromide], the “intraliposomal pH changes” value in data set [1] (in the absence of valinomycin, C12R19 150 nM) is recorded as “pH changes did not occur”. Further, in data set [1], the “dissipation of pH gradient (intraliposomal pH change), protonophore activity” value is reported as “significant changes of intraliposomal pH on the time-scale of minutes”. For the same molecule, the “rate of respiration of whole yeast cells” value in data set [2] (concentration range that includes 5 μM) was “marked stimulation of the rate of respiration”; in data set [2] (up to a concentration of 15 μM), “did not reduce the rate of respiration”. Moreover, in data set [2], the “stimulation of respiration versus suppression of growth” value is given as “increases respiration rate without inhibiting yeast growth”. The “yeast growth rate (CFU)” value in data set [3] is “significant reduction in the growth rate of the yeast Saccharomyces cerevisiae is not observed”. Further, in data set [4], the “creatinine level in blood” value was “decrease in creatinine level in blood”. Further, the “formation of potential upon creation of gradient of the penetrating cation” value in [5] is “did not”. In data set [5], the “formation of proton diffusion potential across lipid bilayer” value was “can generate potential”. In [6] (control rats 2.0±0.2, p<0.01), the “neurological deficit, test "Stimulation of legs" (14-point scale)” value is listed as 5.3±1.1 points. Also, the “volume of ischemic damage (T2-weighted MRT)” value in data set [6] (saline = 100±8.6%) is given as 80.4±11.5%. In data set [7], the “concentration range of cationic uncoupler relative to FCCP” value was “at least an order of magnitude higher”. In [7] (1-10000 nmol/L tested), the “concentration range protecting cells against amiodarone” value lay in the range of 1 to 1000 nmol/L.
Take `CCCCCCCCCCCCOC(=O)c1ccccc1-c1c2ccc(N(CC)CC)cc2[o+]c2cc(N(CC)CC)ccc12` [C12RB]: the “dissipation of pH gradient (intraliposomal pH change), protonophore activity” value in [1] is “practically no activity”. Also, the “rate of respiration of whole yeast cells” value in data set [2] (concentration of 4 μM) is given as “significant increase in the rate of respiration”. Further, in [2] (further increase in concentration above 4 μM), the “rate of respiration of whole yeast cells” value is given as “inhibition of respiration”. Besides, in [5], the “formation of potential upon creation of gradient of the penetrating cation” value is “induced the potential upon addition at one side” and the “formation of proton diffusion potential across lipid bilayer” value is recorded as “but not C12RB, can generate potential”.
As for `O=[N+]([O-])c1ccc(O)c([N+](=O)[O-])c1` [DNP, 2,4-dinitrophenol], in [8], the “side effects in patients” value is given as “many of them showed severe side effects” and the “weight loss in patients” value is “virtually all of the patients lost weight”.
With `N#CC(C#N)=NNc1ccc(OC(F)(F)F)cc1` [FCCP], the “dissipation of pH gradient (intraliposomal pH change), protonophore activity” value in data set [1] is reported as “significantly greater activity”. Moreover, the “uncoupling efficiency estimated from rate of oxygen consumption” value in data set [2] (FCCP compared with C12R19) is listed as “much higher than that of C12R19”. Moreover, the “stimulation of respiration versus suppression of growth” value in data set [2] was “in contrast to FCCP”. Besides, the “yeast cell death caused by amiodarone” value in data set [9] is recorded as “prevents yeast cell death caused by amiodarone”.
Consider `CC(C)[C@@H]1NC(=O)[C@H](C)OC(=O)[C@@H](C(C)C)NC(=O)[C@@H](C(C)C)OC(=O)[C@H](C(C)C)NC(=O)[C@H](C)OC(=O)[C@@H](C(C)C)NC(=O)[C@@H](C(C)C)OC(=O)[C@H](C(C)C)NC(=O)[C@H](C)OC(=O)[C@@H](C(C)C)NC(=O)[C@@H](C(C)C)OC1=O` [valinomycin], for which the “proton flux on liposomes by valinomycin itself” value in data set [1] (control experiments, data not shown) is given as “does not induce proton flux on liposomes”.

The values are drawn from patent US20130203843A1, “MILD CATIONIC MITOCHONDRIAL UNCOUPLERS” (LIMITED LIABILITY COMPANY MITOTECH, priority 2010, published 2013).
